Laboratory results as given in US11981658B2, “Substituted aminopyridine compounds as EGFR inhibitors” (YUHAN CORPORATION, priority 2021, dated 2024).

Tests used:
[1] = molecular target: EGFR L858R/T790M/C797S (Homo sapiens, UniProt P00533, C797S/L858R/T790M); assay: Biochemical EGFR kinase inhibition assay (Lance Ultra TR-FRET), triple mutant L858R/T790M/C797S; conditions: IC50 L858R/T790M/C797S (nM), 100 μM ATP
How it was run: (§1)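 In this biochemical assay, phosphorylation after a one-hour room-temperature reaction was detected with europium-labelled anti-phosphopeptide antibody at 2 nM final concentration.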

[2] = molecular target: EGFR wildtype (WT) (Homo sapiens, UniProt P00533); assay: Biochemical EGFR kinase inhibition assay (Lance Ultra TR-FRET), wildtype; conditions: IC50 WT (nM), 100 μM ATP
How it was run: as §1

[3] = molecular target: EGFR Del19/T790M/C797S (Homo sapiens, UniProt P00533, C797S/DEL746-750/T790M); assay: Biochemical EGFR kinase inhibition assay (Lance Ultra TR-FRET), triple mutant del19/T790M/C797S; conditions: IC50 Del19/T790M/C797S (nM), 100 μM ATP
How it was run: as §1

[4] = molecular target: EGFR Del19/C797S (Homo sapiens, UniProt P00533, C797S/DEL746-750); assay: Biochemical EGFR kinase inhibition assay (Lance Ultra TR-FRET), double mutant del19/C797S; conditions: IC50 Del19/C797S (nM), 100 μM ATP
How it was run: as §1

[5] = molecular target: EGFR L858R/C797S (Homo sapiens, UniProt P00533, C797S/L858R); assay: Biochemical EGFR kinase inhibition assay (Lance Ultra TR-FRET), double mutant L858R/C797S; conditions: IC50 L858R/C797S (nM), 100 μM ATP
How it was run: as §1

EGFR Del19/T790M/C797S, sequence (P00533 with tags, fused parts or gaps DEL746-750/T790M/C797S): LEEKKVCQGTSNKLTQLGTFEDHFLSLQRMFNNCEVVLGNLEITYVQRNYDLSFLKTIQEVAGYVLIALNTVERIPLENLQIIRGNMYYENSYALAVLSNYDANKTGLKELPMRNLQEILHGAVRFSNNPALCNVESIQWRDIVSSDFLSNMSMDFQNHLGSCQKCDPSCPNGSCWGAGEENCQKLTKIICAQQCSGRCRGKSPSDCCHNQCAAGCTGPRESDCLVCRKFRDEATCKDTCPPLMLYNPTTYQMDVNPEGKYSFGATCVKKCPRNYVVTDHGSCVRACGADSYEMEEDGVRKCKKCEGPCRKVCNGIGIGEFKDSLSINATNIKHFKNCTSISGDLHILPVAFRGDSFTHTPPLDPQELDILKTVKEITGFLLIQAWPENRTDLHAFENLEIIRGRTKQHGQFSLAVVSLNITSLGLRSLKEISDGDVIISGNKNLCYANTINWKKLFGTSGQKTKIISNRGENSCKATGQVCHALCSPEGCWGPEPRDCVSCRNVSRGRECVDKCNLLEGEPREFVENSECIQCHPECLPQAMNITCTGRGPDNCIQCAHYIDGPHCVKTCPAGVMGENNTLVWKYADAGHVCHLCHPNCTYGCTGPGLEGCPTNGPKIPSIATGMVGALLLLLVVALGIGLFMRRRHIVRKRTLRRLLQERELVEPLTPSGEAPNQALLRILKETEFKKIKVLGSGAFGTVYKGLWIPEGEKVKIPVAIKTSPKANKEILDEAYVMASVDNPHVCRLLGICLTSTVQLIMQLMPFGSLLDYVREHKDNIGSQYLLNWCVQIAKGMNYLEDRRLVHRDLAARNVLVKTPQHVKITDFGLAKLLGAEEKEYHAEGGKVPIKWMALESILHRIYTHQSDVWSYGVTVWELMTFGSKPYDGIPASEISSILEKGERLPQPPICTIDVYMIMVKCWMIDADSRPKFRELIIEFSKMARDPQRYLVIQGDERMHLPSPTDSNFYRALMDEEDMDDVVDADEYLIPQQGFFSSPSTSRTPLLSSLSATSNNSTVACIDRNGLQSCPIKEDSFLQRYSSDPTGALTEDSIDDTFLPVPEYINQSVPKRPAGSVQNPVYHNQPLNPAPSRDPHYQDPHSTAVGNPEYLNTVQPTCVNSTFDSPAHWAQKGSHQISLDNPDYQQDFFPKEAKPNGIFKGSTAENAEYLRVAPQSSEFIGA
EGFR Del19/C797S, sequence (P00533 with tags, fused parts or gaps DEL746-750/C797S): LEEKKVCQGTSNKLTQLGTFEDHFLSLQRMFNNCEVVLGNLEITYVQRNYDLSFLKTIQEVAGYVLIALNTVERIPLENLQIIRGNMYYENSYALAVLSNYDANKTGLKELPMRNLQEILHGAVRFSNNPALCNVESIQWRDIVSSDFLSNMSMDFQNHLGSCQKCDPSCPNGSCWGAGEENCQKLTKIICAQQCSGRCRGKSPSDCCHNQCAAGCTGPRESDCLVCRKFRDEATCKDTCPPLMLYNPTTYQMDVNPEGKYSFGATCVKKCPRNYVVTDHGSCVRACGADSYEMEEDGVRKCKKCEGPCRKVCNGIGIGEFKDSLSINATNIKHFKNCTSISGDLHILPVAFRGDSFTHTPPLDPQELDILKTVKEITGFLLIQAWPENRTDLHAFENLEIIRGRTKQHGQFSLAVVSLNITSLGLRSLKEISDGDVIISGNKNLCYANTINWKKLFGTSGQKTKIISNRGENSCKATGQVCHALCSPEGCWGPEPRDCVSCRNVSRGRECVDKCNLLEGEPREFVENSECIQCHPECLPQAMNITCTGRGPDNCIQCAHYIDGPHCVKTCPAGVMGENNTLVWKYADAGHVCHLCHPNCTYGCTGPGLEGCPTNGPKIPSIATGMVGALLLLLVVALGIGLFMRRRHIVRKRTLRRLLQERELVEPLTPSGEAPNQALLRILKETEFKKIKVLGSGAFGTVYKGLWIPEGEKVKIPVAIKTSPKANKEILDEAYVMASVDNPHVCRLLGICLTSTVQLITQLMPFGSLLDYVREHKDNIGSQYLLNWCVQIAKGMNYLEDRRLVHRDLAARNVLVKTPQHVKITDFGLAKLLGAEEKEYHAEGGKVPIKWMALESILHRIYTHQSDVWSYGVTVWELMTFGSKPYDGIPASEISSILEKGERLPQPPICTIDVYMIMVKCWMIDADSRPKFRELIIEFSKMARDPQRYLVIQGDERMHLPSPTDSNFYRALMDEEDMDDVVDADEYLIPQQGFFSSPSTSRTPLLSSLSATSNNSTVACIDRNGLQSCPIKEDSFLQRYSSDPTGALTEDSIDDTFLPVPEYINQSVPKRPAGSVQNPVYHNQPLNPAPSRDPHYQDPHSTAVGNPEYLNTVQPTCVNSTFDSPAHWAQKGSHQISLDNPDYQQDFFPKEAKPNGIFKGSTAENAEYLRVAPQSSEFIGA
EGFR wildtype (WT), sequence (P00533 25-1210): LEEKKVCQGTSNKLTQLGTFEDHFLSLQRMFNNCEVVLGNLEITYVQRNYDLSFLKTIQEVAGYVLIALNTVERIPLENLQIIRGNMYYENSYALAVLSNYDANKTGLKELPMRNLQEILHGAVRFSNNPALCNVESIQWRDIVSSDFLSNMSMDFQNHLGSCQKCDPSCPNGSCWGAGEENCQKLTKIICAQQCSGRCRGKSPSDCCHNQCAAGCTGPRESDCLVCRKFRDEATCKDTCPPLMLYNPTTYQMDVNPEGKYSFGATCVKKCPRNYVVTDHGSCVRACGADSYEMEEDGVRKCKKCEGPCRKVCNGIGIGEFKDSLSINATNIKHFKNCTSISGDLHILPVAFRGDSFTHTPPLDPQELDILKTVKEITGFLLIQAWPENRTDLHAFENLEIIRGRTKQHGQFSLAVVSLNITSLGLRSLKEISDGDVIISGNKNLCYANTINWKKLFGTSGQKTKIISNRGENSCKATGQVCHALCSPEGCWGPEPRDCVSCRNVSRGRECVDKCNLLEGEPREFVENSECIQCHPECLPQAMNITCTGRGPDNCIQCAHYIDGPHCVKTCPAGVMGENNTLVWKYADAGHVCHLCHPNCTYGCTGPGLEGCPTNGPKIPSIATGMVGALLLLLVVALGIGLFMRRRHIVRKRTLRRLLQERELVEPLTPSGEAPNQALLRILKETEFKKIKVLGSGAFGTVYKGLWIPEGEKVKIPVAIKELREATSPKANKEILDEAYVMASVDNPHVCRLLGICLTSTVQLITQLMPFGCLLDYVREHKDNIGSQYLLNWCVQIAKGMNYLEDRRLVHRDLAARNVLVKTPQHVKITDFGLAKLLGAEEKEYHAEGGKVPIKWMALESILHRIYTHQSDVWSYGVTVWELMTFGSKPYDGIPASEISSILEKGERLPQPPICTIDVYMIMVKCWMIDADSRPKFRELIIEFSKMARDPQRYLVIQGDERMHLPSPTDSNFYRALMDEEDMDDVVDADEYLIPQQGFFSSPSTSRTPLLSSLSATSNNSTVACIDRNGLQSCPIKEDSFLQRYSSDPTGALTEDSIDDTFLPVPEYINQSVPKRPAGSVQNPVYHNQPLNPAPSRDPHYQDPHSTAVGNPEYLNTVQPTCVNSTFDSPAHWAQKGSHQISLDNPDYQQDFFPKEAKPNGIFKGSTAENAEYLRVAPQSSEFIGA
EGFR L858R/C797S, sequence (P00533 25-1210 C797S/L858R): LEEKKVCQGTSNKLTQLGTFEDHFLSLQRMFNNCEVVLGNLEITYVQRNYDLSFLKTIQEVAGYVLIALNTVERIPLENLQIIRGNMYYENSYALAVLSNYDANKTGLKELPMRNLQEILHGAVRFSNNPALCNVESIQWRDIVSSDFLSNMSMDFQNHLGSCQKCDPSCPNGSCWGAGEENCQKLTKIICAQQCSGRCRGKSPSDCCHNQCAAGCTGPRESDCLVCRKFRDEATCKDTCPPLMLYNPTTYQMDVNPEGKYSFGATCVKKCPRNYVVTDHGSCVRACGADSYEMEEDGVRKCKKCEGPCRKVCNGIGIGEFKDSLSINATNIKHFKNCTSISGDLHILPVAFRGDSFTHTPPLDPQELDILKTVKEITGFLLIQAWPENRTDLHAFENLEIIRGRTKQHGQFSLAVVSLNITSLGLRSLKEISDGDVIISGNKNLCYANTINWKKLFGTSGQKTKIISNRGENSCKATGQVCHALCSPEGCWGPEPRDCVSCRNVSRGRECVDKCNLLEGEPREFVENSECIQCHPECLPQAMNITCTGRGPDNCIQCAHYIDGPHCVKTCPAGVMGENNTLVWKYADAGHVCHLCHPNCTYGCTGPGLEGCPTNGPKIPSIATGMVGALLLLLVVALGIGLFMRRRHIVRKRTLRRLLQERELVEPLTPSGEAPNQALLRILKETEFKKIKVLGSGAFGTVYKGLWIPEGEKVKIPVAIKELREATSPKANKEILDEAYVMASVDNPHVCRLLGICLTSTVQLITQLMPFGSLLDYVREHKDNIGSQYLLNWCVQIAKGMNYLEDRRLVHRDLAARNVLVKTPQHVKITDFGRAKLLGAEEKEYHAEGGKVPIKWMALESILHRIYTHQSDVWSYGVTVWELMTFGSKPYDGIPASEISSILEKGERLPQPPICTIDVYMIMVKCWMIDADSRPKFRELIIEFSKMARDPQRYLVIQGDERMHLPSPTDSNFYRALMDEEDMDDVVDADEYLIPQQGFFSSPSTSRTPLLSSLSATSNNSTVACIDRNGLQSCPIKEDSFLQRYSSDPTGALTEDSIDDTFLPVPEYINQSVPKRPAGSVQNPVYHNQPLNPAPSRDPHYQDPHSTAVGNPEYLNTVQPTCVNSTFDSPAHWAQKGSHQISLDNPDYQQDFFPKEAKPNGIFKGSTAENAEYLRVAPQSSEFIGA

| Compound | IC50 [1] [nM] | IC50 [2] [nM] | IC50 [3] [nM] | IC50 [4] [nM] | IC50 [5] [nM] |
| --- | --- | --- | --- | --- | --- |
| Cn1cc(C#Cc2cnc(Nc3ccnc(-c4cnn(S(=O)(=O)C5CC5)c4)n3)cc2N2CCC(OC(F)(F)F)CC2)cn1 [Example 67, 2-(1-(Cyclopropylsulfonyl)-1H-pyrazol-4-yl)-N-(5-((1-methyl-1H-pyrazol-4-yl)ethynyl)-4-(4-(trifluoromethoxy)piperidin-1-yl)pyridin-2-yl)pyrimidin-4-amine] | 27.7 | > 10000 | 13.3 | 181 | 209 |
| Cn1cc(C#Cc2cnc(Nc3ccnc(-c4cnn(S(=O)(=O)C5CC5)c4)n3)cc2N2CCC(O)C(F)(F)C2)cn1 (stereo not shown) [Example 68, 1-(2-((2-(1-(Cyclopropylsulfonyl)-1H-pyrazol-4-yl)pyrimidin-4-yl)amino)-5-((1-methyl-1H-pyrazol-4-yl)ethynyl)pyridin-4-yl)-3,3-difluoropiperidin-4-ol] | 8.9 | > 10000 | 1.3 | 31 | 130 |
| Cn1cc(C#Cc2cnc(Nc3ccnc(-c4cnn(S(=O)(=O)C5CC5)c4)n3)cc2N2CCC(O)C(C)(C)C2)cn1 (stereo not shown) [Example 69, 1-(2-((2-(1-(Cyclopropylsulfonyl)-1H-pyrazol-4-yl)pyrimidin-4-yl)amino)-5-((1-methyl-1H-pyrazol-4-yl)ethynyl)pyridin-4-yl)-3,3-dimethylpiperidin-4-ol] | 13.2 | > 10000 | 1.7 | 43.8 | 179 |
| Cn1cc(C#Cc2cnc(Nc3ccnc(-c4cnn(S(=O)(=O)C5CC5)c4)n3)cc2N2CCCC(F)C2)cn1 (stereo not shown) [Example 70, 2-(1-(Cyclopropylsulfonyl)-1H-pyrazol-4-yl)-N-(4-(3-fluoropiperidin-1-yl)-5-((1-methyl-1H-pyrazol-4-yl)ethynyl)pyridin-2-yl)pyrimidin-4-amine] | 10.4 | > 10000 | 1.6 | 24.7 | 172 |
| Cn1cc(C#Cc2cnc(Nc3ccnc(-c4cnn(S(=O)(=O)C5CC5)c4)n3)cc2N2CCCC(C(F)(F)F)C2)cn1 (stereo not shown) [Example 71, 2-(1-(Cyclopropylsulfonyl)-1H-pyrazol-4-yl)-N-(5-((1-methyl-1H-pyrazol-4-yl)ethynyl)-4-(3-(trifluoromethyl)piperidin-1-yl)pyridin-2-yl)pyrimidin-4-amine] | 52.6 | > 10000 | 15.7 | 127 | 751 |
| Cn1cc(C#Cc2cnc(Nc3ccnc(-c4cnn(S(=O)(=O)C5CC5)c4)n3)cc2N2CCCC(CF)C2)cn1 (stereo not shown) [Example 72, 2-(1-(Cyclopropylsulfonyl)-1H-pyrazol-4-yl)-N-(4-(3-(fluoromethyl)piperidin-1-yl)-5-((1-methyl-1H-pyrazol-4-yl)ethynyl)pyridin-2-yl)pyrimidin-4-amine] | 16.9 | > 10000 | 2.8 | 50.3 | 170 |
| Cn1cc(C#Cc2cnc(Nc3ccnc(-c4cnn(S(=O)(=O)C5CC5)c4)n3)cc2N2CCC(F)(CO)CC2)cn1 [Example 73, (1-(2-((2-(1-(Cyclopropylsulfonyl)-1H-pyrazol-4-yl)pyrimidin-4-yl)amino)-5-((1-methyl-1H-pyrazol-4-yl)ethynyl)pyridin-4-yl)-4-fluoropiperidin-4-yl)methanol] | 1.2 | 7550 | 0.4 | 2.8 | 6.6 |
| Cn1cc(C#Cc2cnc(Nc3ccnc(-c4cnn(S(=O)(=O)C5CC5)c4)n3)cc2NC2CCCC(F)C2)cn1 (stereo not shown) [Example 74, N^2-(2-(1-(Cyclopropylsulfonyl)-1H-pyrazol-4-yl)pyrimidin-4-yl)-N^4-(3-fluorocyclohexyl)-5-((1-methyl-1H-pyrazol-4-yl)ethynyl)pyridine-2,4-diamine] | 13.6 | > 10000 | 4.7 | 123 | 181 |
